# Where two headings read alike, the source gives them in different places.
# Experiments:
# [1] = Metabolic stability assay, human liver microsomes; type: in vitro ADME; conditions: human liver microsomes 0.5 mg/mL, 1 µM compound, read-out: Liver microsomal stability (T½ /min) human
# Protocol: (§1) Metabolic stability assay: A warm incubation for metabolic stability was performed with a system of 150 µL of liver microsomes (final concentration 0.5 mg/mL) containing NADPH (final concentration 1 mM), 1 µM of the test compound and positive control midazolam or negative control atenolol, and the reaction was terminated with acetonitrile containing tinidazole at 0 min, 5 min, 10 min and 30 min, respectively. The reaction was vortexed for 10 min and centrifuged at 15000 rmp for 10 min, and 50 µL of supernatant was taken into the 96-well plate for sampling. The metabolic stability of the compound was calculated by measuring the relative reduction of the drugs.
# [2] = Metabolic stability assay, rat liver microsomes; type: in vitro ADME; conditions: rat liver microsomes 0.5 mg/mL, 1 µM compound, read-out: Liver microsomal stability (T½ /min) Rat
# Protocol: as §1
# [3] = Metabolic stability assay, monkey liver microsomes; type: in vitro ADME; conditions: monkey liver microsomes 0.5 mg/mL, 1 µM compound, read-out: Liver microsomal stability (T½ /min) monkey
# Protocol: as §1
# KRAS^G12C/SOS1 = biological target: T1, KRAS^G12C/SOS1 (Homo sapiens, UniProt P01116, G12C); assay: KRAS^G12C/SOS1 protein-protein interaction Binding assay (CisBio kit); conditions: class symbols
# T1 construct: purchased CisBio
# Protocol: CisBio’s KRAS^G12C/SOS1 kit was used to test the efficacy of the compound on inhibiting the protein-protein interaction between SOS1 and KRAS^G12Cby Binding assay.Results were expressed as IC50values.
# Test methods: (1) the test compound was tested at a concentration of 1000 nM. Diluted to 3-fold diluted compound of a 200-fold final concentration of 100% DMSO solution in a 384-well plate at 10 concentrations. 50 nL of 200-fold final concentration of compound was transferred to the destination plate 384 well plate using a dispenser Echo 550.50 nL of 100% DMSO was added to the negative control wells and positive control wells; (2) 4-fold final concentration of Tag1 SOS1 solution was prepared using Diluent buffer; (3) 2.5 µL of 4-fold final concentration of Tag1 SOS1 solution was added to the 384-well plate; (4) 4-fold final concentration of Tag2 KRAS^G12C solution was prepared using Diluent buffer; (5) 2.5 µL of 4-fold final concentration of Tag2 KRAS^G12C solution was added to compound wells and positive control wells, respectively; 2.5 µL of diluent buffer was added to negative control wells; (6) the 384-well plate was centrifuged at 1000 rpm for 30 seconds, shaken and mixed, and incubated at room temperature for 15 min; (7) 1-fold final concentration of Anti Tag1 TB3+ solution and 1-fold final concentration of Anti Tag2 XL665 solution were prepared with Detection buffer, and 5 µL of the mixture was added to each well after mixing the two solutions; (8) the 384-well plate was centrifuged at 1000 rpm for 30 seconds, shaken and mixed, and incubated at room temperature for 120 minutes; (9) the Envision enzyme marker was used to read
# Em665/620; (10) data analysis, calculation formula; where Min signal is the mean value of negative control wells, Max signal is the mean value of positive control wells.The log value of concentration was used as the X-axis and the percentage inhibition as the Y-axis to fit the quantitative efficacy curve using the log(inhibitor) vs. response Variable slope of the quantitative efficacy curve of the analytical software GraphPad Prism 5 to derive the IC50 value of each compound on the enzyme activity.The fitting formula was: Y=Bottom+(Top Bottom)/(1+10^A((LogIC50X)^∗ HillSlope)).
# [4] = Metabolic stability assay, mouse liver microsomes; type: in vitro ADME; conditions: mouse liver microsomes 0.5 mg/mL, 1 µM compound, read-out: Liver microsomal stability (T½ /min) Mouse
# Protocol: as §1
# [5] = tested on: MiaPaca-2 cells (pancreatic cancer); assay: Proliferation test method 1 (2D, MTT), MiaPaca-2; type: cell-based; conditions: 5-7 days, read-out: IC50/nM proliferation inhibitory activity on MiaPaca-2 cells
# Protocol: (§2) Test method 1 (2D):NCI-H358 (lung cancer) and MiaPaca-2 cells (pancreatic cancer) cells (100 µL/well, 20,000 cells/mL) were inoculated in 96-well culture plates supplemented with 10% fetal bovine serum and 1% penicillin/streptomycin sulfate, respectively.Using 0.5% dimethyl sulfoxide as a blank control, cells were treated with a solution of the compound to be tested at a starting concentration of 10 µM, tripled diluted testing solution of the compound in eight gradients were used to treat cells, and then incubated in a 5% CO2 incubator for a certain period of time (5-7 days).At the end of incubation, 10 µL of MTT stock solution (5 mg/mL) was added to each well.The culture plates were incubated at 37° C. for 4 h and then the medium was removed.Dimethyl sulfoxide (100 µL) was added to each well and then shaken sufficiently. The absorbance of the product formazanwas measured at 570 nm on the Thermo Scientific Varioskan Flash multimode reader.IC50 values were obtained by fitting dose-response data into a three-parameter nonlinear regression model using GraphPad Prism 6.0 software.
# [6] = tested on: NCI-H358 (lung cancer) cells; assay: Proliferation test method 1 (2D, MTT), NCI-H358; type: cell-based; conditions: Homo sapiens, 5-7 days, read-out: IC50 proliferation inhibitory activity against NCI-H358
# Protocol: as §2
# [7] = tested on: phosphorylated ERK levels of NCI-H358; assay: ERK phosphorylation (western blot), H358; type: cell-based; conditions: Homo sapiens, 3 h
# Protocol: (§3) Test method 3 (ERK phosphorylation): Miapaca-2 or H358 cells were inoculated at certain concentrations in 96-well plates and incubated overnight at 37° C., 5% CO2 in a cell culture incubator, and serial dilutions of the test compound (5 concentrations, 3-fold dilution) were added to the plates the next day for 24 h (Miapaca-2) or 3 h (H358), then lysis solution containing protease and phosphatase inhibitor were added to lyse the cells to extract proteins and western blot method was used to detect the level of p-ERK.
# NCI-H358 cells = assay: Proliferation test method 2 (3D, Cell Titer Glo 3D), NCI-H358; type: cell-based; conditions: Homo sapiens, NCI-H358, 96 h, read-out: IC50 cell proliferation inhibitory activity against NCI-H358
# Protocol: (§4) Test method 2 (3D): The tumor cells in the logarithmic growth phase were diluted with culture solution to a certain concentration and inoculated on the 96-well plate on the ultra-low attachment surface, and the culture medium was 80 µL/well. Cells were incubated overnight at 37° C. in a humidity chamber. On the second day, a series of diluted test compounds (10 concentrations, 3 times dilution) were added to the plate, 20 µL/well, incubated in an incubator for 96h.The plates are removed and placed at room temperature and incubated with an equal volume of Cell Titer Glo®3D reagent for 1 h. The signal is detected by the En Vision™ plate reader. […] A four-parameter nonlinear regression curve was fitted to the percent inhibition for each concentration of the compound and the IC50 was calculated.
# MiaPaca-2 cells = assay: Proliferation test method 2 (3D, Cell Titer Glo 3D), MiaPaca-2; type: cell-based; conditions: Homo sapiens, MIA PaCa-2, 96 h, read-out: IC50 cell proliferation inhibitory activity against MiaPaca-2
# Protocol: as §4
# [8] = tested on: phosphorylated ERK levels of MiaPaca-2; assay: ERK phosphorylation (western blot), MiaPaca-2; type: cell-based; conditions: Homo sapiens, MIA PaCa-2, 24 h
# Protocol: as §3
# T1 sequence (P01116 1-188 isoform P01116-2 G12C): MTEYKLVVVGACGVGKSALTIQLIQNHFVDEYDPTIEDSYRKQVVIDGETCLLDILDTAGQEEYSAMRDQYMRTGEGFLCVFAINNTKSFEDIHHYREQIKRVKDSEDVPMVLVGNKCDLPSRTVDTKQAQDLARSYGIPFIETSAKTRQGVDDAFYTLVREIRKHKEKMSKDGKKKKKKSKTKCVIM
SMILES,half-life at 1 µM [1],half-life at 1 µM [2],half-life at 1 µM [3],IC50 (KRAS^G12C/SOS1),half-life at 1 µM [4],IC50 ([5]; 2D),"IC50 ([5]; Homo sapiens, MIA PaCa-2, 2D)",IC50 [6],IC50 [7],IC50 (NCI-H358 cells),IC50 (MiaPaca-2 cells),IC50 [8]
"C=CC(=O)N1CC2C(=O)N(C)c3cnc4c(F)c(-c5c(O)cccc5F)c(Cl)cc4c3N2CC1C (single isomer, unassigned) [Comparative Compound 2-1, reference compound]",54 min,41 min,42 min,50 to 200 nM,47 min,–,–,–,–,–,–,–
"C=CC(=O)N1CCN(c2c(C#N)cnc3c(F)c(-c4ccc(F)c5sc(N)nc45)c(Cl)cc23)[C@@H](C)C1 [Example 10, 4-((S)-4-Acryloyl-2-Methylpiperazin-1-yl)-7-(2-Amino-7-Fluorobenzo[d]Thiazol-4-yl)-6-Chloro-8-Fluoroquinolin-3-Cyano]",–,–,–,50 to 200 nM,–,57.2 nM,< 100 nM,< 0.1 µM,< 0.5 µM,< 0.2 µM,< 0.2 µM,< 0.5 µM
"C=CC(=O)N1CCN(c2nc(OC[C@@H]3CCCN3C)nc3c(F)c(-c4ccc(F)c5sc(N)nc45)c(Cl)cc23)CC1 [Example 1, 1-(4-(7-(2-Amino-7-Fluorobenzo [d] Thiazol-4-yl) -6-Chloro-8-Fluoro-2-(((S)-1-Methylpyrrolin-2-yl) Methoxy) Quinazolin-4-yl) Piperazin-1-Yl) Prop-2-En-1-One]",> 30 min,–,–,< 50 nM,–,–,–,< 0.1 µM,< 0.5 µM,–,–,< 0.5 µM

# Next, values leading:
half-life at 1 µM [1],half-life at 1 µM [2],half-life at 1 µM [3],IC50 (KRAS^G12C/SOS1),half-life at 1 µM [4],IC50 ([5]; 2D),"IC50 ([5]; Homo sapiens, MIA PaCa-2, 2D)",IC50 [6],IC50 [7],IC50 (NCI-H358 cells),IC50 (MiaPaca-2 cells),IC50 [8],SMILES
–,> 30 min,> 30 min,< 50 nM,–,–,1.2 nM,–,–,–,–,–,"C=CC(=O)N1CCN(c2nc(OC[C@@H]3CCCN3C)nc3c(F)c(-c4ccc(F)c5sc(N)nc45)c(Cl)cc23)[C@@H](C)C1 [Example 23, 1-((3S)-4-(7-(2-Amino-7-Fluorobenzo [d]thiazol-4-yl) -6-Chloro-8-Fluoro-2-(((S)-1-Methylpyrrolin-2-yl) Methoxy) Quinazolin-4-yl)-3-Methylpiperazin-1-yl) Prop-2-En-1-One]"
–,> 30 min,> 30 min,< 50 nM,> 30 min,–,–,< 0.1 µM,< 0.5 µM,< 0.2 µM,< 0.2 µM,< 0.5 µM,"C=CC(=O)N1CCN(c2c(C#N)c(OCCN(C)C)nc3c(F)c(-c4ccc(F)c5sc(N)nc45)c(Cl)cc23)CC1 [Example 20, 4-(4-Acryloyl Piperazin-1-yl)-7-(2-Amino-7-Fluorobenzo [d] Thiazol-4-yl) -6-Chloro-2-(2-(Dimethylamino) Ethoxy)-8-Fluoroquinolin-3 -Cyano]"
> 30 min,–,> 30 min,50 to 200 nM,> 30 min,–,0.9 nM,–,–,–,–,–,C=C(F)C(=O)N1CCN(c2c(C#N)c(OC[C@@H]3CCCN3C)nc3c(F)c(-c4ccc(F)c5sc(N)nc45)c(Cl)cc23)CC1 [Example 14]

# Reference: patent US20230174526A1, “BENZOTHIAZOLYL BIARYL COMPOUND, AND PREPARATION METHOD AND USE” (SHANGHAI RINGENE BIOPHARMA CO., LTD., priority 2020, published 2023)
